Source: patent publication US12649790B2, “Proteins that bind SP17 including fully-human anti-SP17 antibodies” (Medicovestor, Inc., priority 2023, dated 2026)
“Also recorded” adds a separate entry of the source. *1 amine or outer side, *2 acyl side, *3 side chain or, on linkers, in order; H or OH if unused. Where a SMILES comes first, the peptide text is derived from it. [ ]: non-standard residue; d: D form. The star is where a group is joined. Exatecan = CC[C@@]1(O)C(=O)OCc2c1cc1n(c2=O)Cc2c-1nc1cc(F)c(C)c3c1c2[C@@H](N*)CC3; Hexanoyl(6-maleimido) = O=C1C=CC(=O)N1CCCCCC(=O)*; NHCH2OCH2CO = O=C(COCN[*:1])[*:2]

What was measured:
SK-OV-3 cells = experiment: Cytotoxicity assay (luminescence) against SK-OV-3 cells; conditions: 5 or 6 days
Description: SK-OV-3 cells were seeded at 1000, 2000, or 3000 cells per well and incubated overnight in advance of a cytotoxicity assay. […] The SK-OV-3 cells were treated with various concentrations of the SP17-AB2 antibody, the SP17-AB2-DXD immunoconjugate, a control human IgG4 antibody (hIgG4), or deruxtecan alone (DXD). The cells were incubated for 5 or 6 additional days, and cytotoxicity was then measured using a luminescence assay and EnVision™ plate reader (PerkinElmer, Massachusetts, United States).

ID8 cells = experiment: Cytotoxicity assay against ID8 cells; assay type: cell-based, mouse; conditions: 3 days
Description: […] The cells were then treated with various concentrations of either the SP17-AB2 antibody, the SP17-AB2-DXD immunoconjugate, hIgG4, or deruxtecan alone. The cells were incubated for 3 additional days, and then cytotoxicity was measured.

[1] = system: normal tissue microarray of 33 normal tissues; experiment: Immunohistochemistry on a normal tissue microarray (specificity); conditions: 2-3 human donors per tissue
Description: The specificity of the chAB2 antibody for Sp17 was determined with immunohistochemistry on a normal tissue microarray, which consisted of 33 normal tissues obtained from 2-3 human donors per tissue. The normal tissues included brain, eye, adrenal gland, hypophyseal, thyroid, parathyroid, tonsil, thymus, spleen, heart, lung, larynx, esophagus, stomach, small intestine, colon, liver, pancreas, salivary gland, kidney, bone, skeletal, skin, peripheral nerve, mesothelial, breast, ovary, endometrium, cervix, testis, and prostate.

[2] = target: T1, mouse surface Sp17 protein expressed on the mouse ovarian cancer cell line ID8 (Mus musculus, UniProt Q62252); experiment: Flow cytometry of ID8 cells labeled with chAB2 and anti-mouse FITC antibody; assay type: cell-based; conditions: relative to anti-mouse FITC antibody alone
T1 construct: endogenous in cells; host or cells: ID8 mouse ovarian cancer cell line
T1 sequence (Q62252 1-149): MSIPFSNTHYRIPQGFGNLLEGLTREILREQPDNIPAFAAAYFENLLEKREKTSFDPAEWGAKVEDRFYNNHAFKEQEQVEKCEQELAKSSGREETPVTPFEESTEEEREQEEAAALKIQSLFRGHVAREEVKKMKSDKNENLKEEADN
Description: FIG. 4 consists of three panels. The left panel is a graph that depicts flow cytometry results for ID8 cells incubated with an anti-mouse fluorescein isothiocyanate (FITC) antibody, but without a primary antibody. The middle panel is a graph that depicts flow cytometry results for ID8 cells labeled with the anti-Sp17 antibody chAB2 and the anti-mouse FITC antibody.
(§1) The nucleotide sequences encoding the VH and VL regions of Example 1 were cloned into a mouse IgG2a heavy chain gene and a mouse kappa light chain gene, respectively, and expressed in CHO—S cells to produce a mouse-human chimeric antibody, which was named chAB2. Successful generation of the antibody was confirmed by SDS-PAGE and western blotting using anti-mouse heavy and light chain antibodies and recombinant Sp17 protein (FIGS. 2 & 3).

[3] = target: T2, recombinant 6His-Sp17 protein (Homo sapiens, UniProt Q15506); experiment: Surface plasmon resonance (Biacore T200) of chAB2 binding to recombinant 6His-Sp17; conditions: SPR
T2 sequence (Q15506 1-151): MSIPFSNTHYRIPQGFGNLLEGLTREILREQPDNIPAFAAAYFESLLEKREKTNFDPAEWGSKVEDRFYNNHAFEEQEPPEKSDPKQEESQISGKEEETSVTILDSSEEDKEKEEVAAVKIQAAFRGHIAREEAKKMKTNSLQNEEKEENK
Source text: The lines correspond, from highest to lowest, to fitted cycles for 300 nanomolar, 100 nanomolar, 50 nanomolar, 25 nanomolar, 12.5 nanomolar, and 6.25 nanomolar concentrations of 6His-Sp17.
as §1

Sp17 protein = target: T3, Sp17 protein (Homo sapiens, UniProt Q15506); experiment: Western blot detection of Sp17 protein; assay type: binding; conditions: SDS-PAGE of Sp17 protein
T3 sequence (Q15506 1-151): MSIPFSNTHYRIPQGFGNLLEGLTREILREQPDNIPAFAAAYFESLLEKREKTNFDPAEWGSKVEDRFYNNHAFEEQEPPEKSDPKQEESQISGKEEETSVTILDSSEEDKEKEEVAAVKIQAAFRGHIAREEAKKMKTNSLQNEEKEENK
Source text: as §1
The VH and VL nucleotide sequences of Example 1 were cloned into a human IgG4 heavy chain gene and a human kappa light chain gene, respectively. A Ser228Pro mutation was introduced in the heavy chain to reduce non-specific Fc receptor gamma binding. The resultant antibody was named SP17-AB2. Successful cloning was confirmed by sequence analysis. The amino acid sequences of the heavy chain and light chain are shown in Table 4, and the Ser228Pro mutation is underlined in SEQ ID NO: 11.

[4] = SK-OV-3 cells at 1000 cells/well
[5] = SK-OV-3 cells at 2000 cells/well
[6] = SK-OV-3 cells at 3000 cells/well

| association rate constant (ka) for chAB2 to Sp17 ([3]; 6.25-300 nanomolar 6His-Sp17) | Kd ([3]; Biacore T200, read-out: dissociation constant (KD)) [nM] | binding/detection of Sp17 protein by western blot (Sp17 protein) | Molecule | IC50 (SK-OV-3 cells; [4]) [nM] | Max Cytotoxicity (SK-OV-3 cells; [4]) [%] | IC50 (SK-OV-3 cells; [5]) [nM] | Max Cytotoxicity (SK-OV-3 cells; [5]) [%] | IC50 (SK-OV-3 cells; [6]) [nM] | Max Cytotoxicity (SK-OV-3 cells; [6]) [%] | Max Cytotoxicity (ID8 cells; ID8 cells at 250 cells/well) [%] | Max Cytotoxicity (ID8 cells; ID8 cells at 500 cells/well) [%] | binding to normal human tissues / cross-reactivity by immunohistochemistry [1] | reactivity to surface Sp17 on ID8 cells by flow cytometry (mean fluorescent intensity) [2] |
| --- | --- | --- | --- | --- | --- | --- | --- | --- | --- | --- | --- | --- | --- |
| – | – | – | CC[C@@]1(O)C(=O)OCc2c1cc1n(c2=O)Cc2c-1nc1cc(F)c(C)c3c1c2[C@@H](NC(=O)COCNC(=O)CNC(=O)[C@H](Cc1ccccc1)NC(=O)CNC(=O)CNC(=O)CCCCCN1C(=O)C=CC1=O)CC3 [deruxtecan] ({Hexanoyl(6-maleimido)}-GGFG[NHCH2OCH2CO]-Exatecan) | 0.75 | 98 | 1.1 | 97 | 1.2 | 97 | 94 | 93 | – | – |
| 62,600 per mole per second | ~2 | Sp17 protein was detected | chAB2: mouse-human chimeric anti-Sp17 monoclonal antibody: human VH/VL (SEQ ID NO: 3, 4) in mouse IgG2a heavy chain and mouse kappa light chain (antibody, V domains shown, mouse IgG2a and kappa constant regions) VH: QVQLQQSGAEVKKPGSSVKVSCKASGGTFSSYAISWVRQAPGQGLEWMGRIIPILGIANYAQKFQGRVTITADKSTSTAYMELSSLRSEDTAVYYCARPSEEVVAAYGAFDIWGQGTTVTVSS VL: EIVLTQSPLSLPVRPGEPASISCRASQSLLRSDGFNYLDWYLQKPGQSPQLLVYLGSNRASGVPDRFSGSGSGTDFTLKISRVEAEDVGVYYCMQAVQTPYIFGQGTKLEIK | – | – | – | – | – | – | – | – | bound to testis and did not bind to normal tissues; also recorded: lack detectable cross-reactivity | reactive to mouse surface Sp17 protein; also recorded: increased mean fluorescent intensity |
